Target: T1, human vasopressin V1a receptor subtype (Homo sapiens, UniProt P37288)
T1 construct: host or cells: CHO cells, stably transfected (pZeoSV vector for the Thibonnier cells); membranes
Test: Vasopressin binding in CHO cell membranes expressing human vasopressin V1a subtype receptors ([3H]Manning ligand)
Details: 100 nM, values without parentheses
Text: Vasopressin Binding in Chinese Hamster Ovary Cell Membranes Expressing Human Vasopressin V1a Subtype Receptors
Chinese hamster ovary cells (CHO cells) stably transfected with the human vasopressin V1a subtype receptors were either obtained from Biosignal Inc., 1744 rue Williams, Montreal, Quebec, Canada or obtained from M. Thibonnier, Case Western Reserve University School of Medicine, Cleveland, Ohio. A. Passaging and Amplification of Cells: CHO cells transfected with the human vasopressin V1a subtype receptors obtained from M. Thibonnier (pZeoSV vector) are allowed to grow to confluency (approx. >90%) in T-150 flasks under sterile conditions, in a cell culture medium of F-12 Nutrient Mixture (HAM) with L-glutamine (Gibco Cat. #11765-054) containing 15 mM HEPES (Gibco Cat. #15630-080), 1% antibiotic/antimycotic (add 5 mL 100×, Gibco Cat. #15240-062 per 500 mL F-12), 250 μg/mL Zeocin (add 1.25 mL of 100 mg/mL Invitrogen R-250-01 per 500 mL F-12) and 10% Fetal Bovine Serum (Qualified, heat inactivated, Gibco Cat. #16140-063). The medium is removed by aspiration and the cells are washed with 10 mL of Hank's Balanced Salt solution (Gibco Cat. #14175-095). The salt solution is removed by aspiration and the cells are trypsinized with 5 mL of trypsin-EDTA (0.05% trypsin, 0.53 mM EDTA-4Na, Gibco Cat. #25300-070) for 1 min. The trypsin is removed by aspiration and the cells dislodged by tapping. Cell Culture medium (eg, 30 mL for 1:30 split) is immediately added and mixed well to inactivate trypsin. 1 mL of detached cells is added to new culture flasks containing fresh cell culture medium (eg, into 25 mL per T-150 flask), and mixed gently. The cells are incubated at 37° C. in 5% CO2. The medium is changed at 3 to 4 days interval (or as appropriate). The cells grow to confluency (approx. >75%–95%) within 7–8 days. All steps are done under sterile conditions. B. Membrane Preparation: The cells are washed twice gently with Hank's Balanced Salt solution (e.g.,. use 10 mL per T-150 flask). The excess is removed and the cells are bathed for 15–30 min. in an enzyme-free Cell Dissociation Buffer (e.g. use 8 mL Hank's Based, Gibco Cat. #13150-016 per T-150 flask) until the cells are loosened. The contents are transferred to centrifuge tubes (50 mL size) kept in ice bath. All subsequent steps are done at 4° C. The tubes are centrifuged at 300×g for 15 min (1380 rpm on SORVAL, Model RT6000D, using rotor for 50 mL tubes). The supernatant is discarded and the cells suspended in homogeneizing buffer (10 mM Tris-HCl containing 0.25 M sucrose and 1 mM EDTA, pH 7.4) ensuring that the volume of the buffer is about ten times the volume of the cell pellet. The cells are pooled into a centrifuge tube (50 mL) and homogenized with Polytron at setting 6 for 10 sec. The homogenate is transferred into a Potter-Elvjehm homogenizer and homogenized with 3 strokes. The homogenate is centrifuged at 1500×g for 10 min at 4° C. (3100 rpm using SORVAL, model RT6000D, using rotor for 50 mL tubes). The pellet is discarded. The supernatant is centrifuged at 100,000×g for 60 min. at 4° C. (Beckman L8-80M ultracentrifuge; spin at 37,500 rpm with rotor type 70 Ti for 50 mL tubes; 38,000 rpm with type 80Ti for 15 mL tubes; or 35,800 rpm with rotor type 45Ti). The supernantant is discarded and the pellet suspended in 3 to 4 mL of Tris buffer (50 mM TRIS-HCl, pH 7.4). The protein content is estimated by the Bradford or Lowry method. The volume of the membrane suspension is adjusted with the membrane buffer (50 mM Tris-HCl containing 0.1% BSA and 0.1 mM PMSF) to give 3.0 mg/mL (or as appropriate) of protein. The membranes are aliquoted and stored at −70° C. C. […]

T1 sequence (P37288 whole entry): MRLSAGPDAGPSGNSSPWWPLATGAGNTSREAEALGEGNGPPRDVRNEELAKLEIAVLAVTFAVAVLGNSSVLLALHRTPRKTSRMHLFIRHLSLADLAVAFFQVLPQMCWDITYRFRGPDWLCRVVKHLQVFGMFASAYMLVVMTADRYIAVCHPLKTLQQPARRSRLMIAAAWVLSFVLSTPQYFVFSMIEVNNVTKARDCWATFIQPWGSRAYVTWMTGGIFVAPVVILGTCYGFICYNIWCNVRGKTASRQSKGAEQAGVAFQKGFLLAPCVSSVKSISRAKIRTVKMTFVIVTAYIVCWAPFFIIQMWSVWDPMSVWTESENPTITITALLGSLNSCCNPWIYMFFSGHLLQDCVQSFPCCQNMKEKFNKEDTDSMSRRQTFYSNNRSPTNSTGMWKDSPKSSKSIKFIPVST

Compound O=C(c1ccc(C2=CC(O)CCC2)cc1)N1Cc2cccn2Cc2ccccc21 (stereo not drawn) [Example 25, (10,11-Dihydro-5H-pyrrolo[2,1-c][1,4]benzodiazepin-10-yl)-[4-(3-hydroxy-cyclohex-1-en-1-yl)-phenyl]-methanone] has an inhibition at 0.1 µM of 76%.
CC1=C(c2ccc(C(=O)N3Cc4cccn4Cc4ccccc43)cc2)CCCC1=O [Example 26, 3-[4-(10,11-Dihydro-5H-pyrrolo[2,1-c][1,4]benzodiazepine-10-carbonyl)-phenyl]-2-methyl-cyclohex-2-en-1-one] gave an inhibition at 0.1 µM of 27%.
CC1=C(c2ccc(C(=O)N3Cc4cccn4Cc4ccccc43)cc2)CCCC1O (stereo not drawn) [Example 27, (10,11-Dihydro-5H-pyrrolo[2,1-c][1,4]benzodiazepin-10-yl)-[4-(3-hydroxy-2-methyl-cyclohex-1-en-1-yl)-phenyl]-methanone] was tested, and the inhibition at 0.1 µM was 89%.
In the case of Cc1cc(C(=O)N2Cc3cccn3Cc3ccccc32)ccc1C1=CCCCC1C (stereo not drawn) [Example 29, (10,11-Dihydro-5H-pyrrolo[2,1-c][1,4]benzodiazepin-10-yl)-[3-methyl-4-(6-methyl-cyclohex-1-en-1-yl)-phenyl]-methanone], the inhibition at 0.1 µM is reported as 27%.
For Cc1cc(C(=O)N2Cc3cccn3Cc3ccccc32)ccc1C1=CCCCC1(C)C [Example 30, (10,11-Dihydro-5H-pyrrolo[2,1-c][1,4]benzodiazepin-10-yl)-[4-(6,6-dimethyl-cyclohex-1-en-1-yl)-3-methyl-phenyl]-methanone], the inhibition at 0.1 µM was 18%.
With CC1=C(c2ccc(C(=O)N3Cc4cccn4Cc4ccccc43)cc2C)C(C)CCC1 (stereo not drawn) [Example 33, (10,11-Dihydro-5H-pyrrolo[2,1-c][1,4]benzodiazepin-10-yl)-[4-(2,6-dimethyl-cyclohex-1-en-1-yl)-3-methyl-phenyl]-methanone] the inhibition at 0.1 µM was 6%.
With Cc1cc(C(=O)N2Cc3cccn3Cc3ccccc32)ccc1C1=CCCCC1C(C)(C)C (stereo not drawn) [Example 34, (10,11-Dihydro-5H-pyrrolo[2,1-c][1,4]benzodiazepin-10-yl)-[4-(6-tert-butyl-cyclohex-1-en-1-yl)-3-methyl-phenyl]-methanone] the inhibition at 0.1 µM was -5%.
In the case of Cc1cc(C(=O)N2Cc3cccn3Cc3ccccc32)ccc1C1=CCC2CCC1C2 (stereo not drawn) [Example 35, (10,11-Dihydro-5H-pyrrolo[2,1-c][1,4]benzodiazepin-10-yl)-(4-bicyclo[3.2.1]oct-2-en-2-yl-3-methyl-phenyl)-methanone], the inhibition at 0.1 µM is reported as 36%.
For Cc1cc(C(=O)N2Cc3cccn3Cc3ccccc32)ccc1C1=CCC2CC1C2(C)C (stereo not drawn) [Example 36, (10,11-Dihydro-5H-pyrrolo[2,1-c][1,4]benzodiazepin-10-yl)-[4-(6,6-dimethyl-bicyclo[3.1.1]hept-2-en-2-yl)-3-methyl-phenyl]-methanone], the inhibition at 0.1 µM was 11%.
For Cc1cc(C(=O)N2Cc3cccn3Cc3ccccc32)ccc1C1=CC(C)(C)CC(C)(C)C1 [Example 37, (10,11-Dihydro-5H-pyrrolo[2,1-c][1,4]benzodiazepin-10-yl)-[3-methyl-4-(3,3,5,5-tetramethyl-cyclohex-1-en-1-yl)-phenyl]-methanone], the inhibition at 0.1 µM was 10%.
With COc1cccc(C2=C(c3ccc(C(=O)N4Cc5cccn5Cc5ccccc54)cc3C)CCCC2)c1 [Example 38, (10,11-Dihydro-5H-pyrrolo[2,1-c][1,4]benzodiazepin-10-yl)-{4-[2-(3-methoxy-phenyl)-cyclohex-1-en-1-yl]-3-methyl-phenyl}-methanone] the inhibition at 0.1 µM was 5%.
With Cc1cc(C(=O)N2Cc3cccn3Cc3ccccc32)ccc1C1=CC(=O)CCC1 [Example 39, 3-[4-(10,11-Dihydro-5H-pyrrolo[2,1-c][1,4]benzodiazepine-10-carbonyl)-2-methyl-phenyl]-cyclohex-2-en-1-one] the inhibition at 0.1 µM was 48%.
Compound Cc1cc(C(=O)N2Cc3cccn3Cc3ccccc32)ccc1C1=CC(O)CCC1 (stereo not drawn) [Example 40, (10,11-Dihydro-5H-pyrrolo[2,1-c][1,4]benzodiazepin-10-yl)-[4-(3-hydroxy-cyclohex-1-en-1-yl)-3-methyl-phenyl]-methanone] has an inhibition at 0.1 µM of 91%.
With CO[C@@H]1CCCC(c2ccc(C(=O)N3Cc4cccn4Cc4ccccc43)cc2C)=C1C [Example 44, 10-{4-[(3R)-3-Methoxy-2-methylcyclohex-1-en-1-yl]-3-methylbenzoyl}-10,11-dihydro-5H-pyrrolo[2,1-c][1,4]benzodiazepine] the inhibition at 0.1 µM was 85%.
In the case of CC1=C(c2ccc(C(=O)N3Cc4cccn4Cc4ccccc43)cc2C)CCCC1N (stereo not drawn) [Example 45, [4-(3-Amino-2-methyl-cyclohex-1-en-1-yl)-3-methyl-phenyl]-(10,11-dihydro-5H-pyrrolo[2,1-c][1,4]benzodiazepin-10-yl)-methanone], the inhibition at 0.1 µM is reported as 50%.

Reference: patent US7022699B2, “Cyclohexenyl phenyl diazepines vasopressin and oxytocin receptor modulators” (Wyeth, priority 2001, dated 2006)
